pIC50: −log10 of the molar value. Read-outs that look alike come from different tables or passages of the source.
Columns and labels:
[1] = tested on: LTB4 production in MC/9 cells; assay: MC/9 HPLC assay, inhibition of LTB4 production; type: cell-based; conditions: Mus musculus
How it was run: (§1)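 MC/9 cells (3×10^6 in HBSS) pre-incubated 30 min with compound, then stimulated 20 min at room temperature with 1 μM A23187. After methanol quench and C18 solid-phase extraction, LTB4 and LTC4 quantified by HPLC against reference standards; inhibition relative to control samples.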

[2] = tested on: LTC4 production in MC/9 cells; assay: MC/9 HPLC assay, inhibition of LTC4 production; type: cell-based; conditions: Mus musculus; for inhibition at 3 µM: MC9, 3 μM, A23187 stimulated
How it was run: as §1

AA-induced ear edema = assay: Arachidonic acid (AA) induced mouse ear edema model; type: in vivo, CD-1 mice; conditions: 4 hrs and 1 hr before AA 2 mg/ear, mice; for % Inhibition AA-Induced ear edema (0.3 mg/ear): topical 0.3 mg/ear; for % Inhibition AA-Induced ear edema (1 mg/ear): topical 1 mg/ear
Experimental: One group serves as a control and receives 20 μL of vehicle applied to the pinna of each ear (10 μL to the inside and 10 μL to the outside of the pinna). One or more additional groups serve as test groups. The test compound was applied to the pinna of one ear of the mouse in a 20 μL volume (10 μL to the inside and 10 μL to the outside of the pinna). Test compound or control vehicle (acetone/1% DMSO) was applied topically to the right ear 4 and 1 hour before the application of 2 mg/ear AA as a stimulus to both the inner and outer surfaces of CD-1 mice. The left ears received vehicle (acetone/1% DMSO) alone. The animal was lightly anesthetized again using isofluorane to enable application of the stimulus. For the control group, arachidonic acid (2 mg/ear) was applied as the stimulus to the pinna of one ear only, in a total volume of 20 μL of acetone (10 μL applied to the inside and 10 μL to the outside of the pinna). The other ear received 20 μL of acetone. This served to determine the increase in ear weight due to arachidonic acid in the absence of test compounds. For the test groups, arachidonic acid (2 mg/ear) was applied as the stimulus to the pinna of each ear, in a total volume of 20 μL of acetone (10 μL applied to the inside and 10 μL to the outside of the pinna). The animal was allowed to recover after application of the stimulus in each case. After 60 minutes the animal was euthanized and a standard biopsy sample was taken from each ear using a 6 mm skin biopsy punch (Acuderm). Ear edema was determined by the increase in weight of the tissue due to accumulation of fluid as a result of plasma extravasation. The ears were weighed separately using a balance suitable to record 0.1 mg. For the control group, the difference in ear weights was determined by subtracting the weight of the unstimulated ear from the stimulated ear, and this was a measure of the increase in ear weight due to edema. The percentage increase in ear weight was determined by dividing the increase in stimulated ear weight by the unstimulated ear weight and multiplying by 100. For the test groups, the difference in ear weights was determined by subtracting the weight of the untreated ear from the weight of the ear treated with test compound. The percent inhibition of the increase in ear weight for ears treated with the test compound was estimated by first subtracting the mean ear weight of the untreated controls from each tissue to determine the increase in tissue weight due to application of the arachidonic acid. The percent inhibition=1−(test drug stimulated ear (mg)/control stimulated ear (mg))×100. In Table 5, the data from inhibition of AA-induced ear edema in mice by topical application of compounds is provided. Compounds (0.3 or 1 mg/ear) were applied topically to the ear 4 hrs and 1 hr prior to application of arachidonic acid (AA; 2 mg/ear).

[3] = tested on: LTB4 production in porcine or human whole blood; assay: Whole blood HPLC assay, inhibition of LTB4 production; type: cell-based; conditions: 5 point curve, porcine or human whole blood (not specified)
How it was run: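 Porcine or human whole blood was pre-incubated 30 min with compound, then stimulated 20 min at room temperature with 20 μM A23187 (porcine blood also received 20 μM arachidonic acid). Plasma LTB4 was extracted on C18 and quantified by HPLC against reference standards. IC50 from a 5-point curve, with inhibition relative to controls.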

[4] = molecular target: T1, recombinant human leukotriene A4 hydrolase enzyme (Homo sapiens, UniProt P09960); assay: Amino-peptidase assay, alanine-4-nitroanalide; type: biochemical; conditions: negative values = augmented peptidase activity, read-out: % Inhibition aminopeptidase-Alanine-4-nitroanalide activity of LTA4H (3 μM)
T1 construct: purchased Cayman Chemical 10007817
T1 sequence (P09960 1-611): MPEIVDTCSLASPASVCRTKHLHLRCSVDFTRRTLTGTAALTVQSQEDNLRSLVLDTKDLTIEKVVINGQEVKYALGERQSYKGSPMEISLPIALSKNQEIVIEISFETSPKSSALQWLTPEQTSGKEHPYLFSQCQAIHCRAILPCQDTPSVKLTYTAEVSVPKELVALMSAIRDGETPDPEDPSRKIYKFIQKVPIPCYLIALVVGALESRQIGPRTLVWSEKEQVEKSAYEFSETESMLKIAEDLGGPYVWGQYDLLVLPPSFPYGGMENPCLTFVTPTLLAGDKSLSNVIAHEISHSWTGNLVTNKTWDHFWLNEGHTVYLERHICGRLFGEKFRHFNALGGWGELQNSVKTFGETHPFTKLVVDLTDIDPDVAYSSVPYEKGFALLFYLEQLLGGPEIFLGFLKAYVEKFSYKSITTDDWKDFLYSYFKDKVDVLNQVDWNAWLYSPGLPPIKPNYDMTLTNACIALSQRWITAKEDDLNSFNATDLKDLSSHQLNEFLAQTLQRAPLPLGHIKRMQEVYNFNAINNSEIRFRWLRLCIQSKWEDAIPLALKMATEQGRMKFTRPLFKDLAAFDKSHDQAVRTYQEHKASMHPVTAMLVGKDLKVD
How it was run: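 Compounds pre-incubated in the dark with recombinant human LTA4H (0.5 μg) in 50 mM Tris-HCl, 100 mM KCl; reaction started with alanine-4-nitroanilide (6 mM solution). Aminopeptidase rate followed as A405 from 4-nitroaniline, referenced to a standard; inhibition calculated versus controls, with negative values indicating augmented activity.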

[5] = Solubilized concentration of compound in eye drop formulation (HPLC); type: physicochemical; conditions: eye drop formulation: 20% hydroxypropyl β-cyclodextrin, 0.5% HPMC, 1.6 mM EDTA in PBS
Experimental: (§2) Eye drops were prepared by adding compounds at a theoretical concentration of 10 mg/mL to a 2 mL microcentrifuge tube before adding a stir bar and the selected formulation that consisted of (w/v) hydroxypropyl β-cyclodextrin (Trappsol) (20%), hydroxyl propyl methylcellulose (0.5%) and EDTA (1.6 mM) in phosphate buffered saline. Tubes containing compound in eye drop formulation were heated to 60-65° C. and stirred at least 4 hours to overnight. The tubes were removed from the heat bath and centrifuged at 10,000 ref for 5 minutes to clear the solution of any residual drug not in solution. The supernatant was removed from the tubes and one 10 μL sample was removed for HPLC analysis of solubilized by HPLC using an ACE C18 column (4.5 mm×150 mm, 5 m), eluted with acetonitrile/methanol/water mixture with H3PO4, pH 3.5 (50:30:20) with a flow rate of 2.5 mL/min. The solubilized concentration of each compound was calculated by interpolation from a standard curve based on reference standards solubilized in methanol when the assay was validated.
In Table 6, the data from distribution studies performed in Lewis rats show the concentration of each compound present in the retina 0.5 hr after the administration of a 10 μL drop of each topical formation is provided. Compounds were paired and individual formulations mixed at a ratio to make a mixture that contained ~2.5 mg/mL of each compound.

[6] = Rat ocular distribution model, retina after topical drop; type: in vivo; conditions: Lewis rats, 10 μL topical drop
Experimental: as §2
Compounds were applied as a single 10 μL drop to rats and the aqueous humor, and the posterior segment of the eye (vitreous body and retina) were collected from each eye at the time point assigned after the eye was irrigated to remove any residual formulation present. Tissues were collected in pre-weighed collection tubes and the tissue weight was determined for each sample. An internal standard (IS) mixture containing a reference compound at a ratio of 1 μL to 4 mg tissue was added to samples, mixed and then diluted×4.25 in acetonitrile:methanol (9:1). Aqueous humour samples were vortex mixed for 10 s. The vitreous body & retina were vortex mixed 2 times each for 10 s, and further mixed for 6 min on a tabletop shaker at 750 rpm followed by final vortex mixing (10 s). All samples were centrifuged to pellet any particulate matter and the supernatant was transferred to LC vials. A 10 μL sample was then applied to the HPLC during LC/MS/MS analysis. A calibration curve for compounds (0.588-176.471 ng/mL) was prepared in rat plasma to estimate concentrations of compounds in each of the matrices analyzed using the area under curve (AUC) normalized to internal standard AUC for determining response. The assumption was made that 1 mg tissue is equivalent to 1 μL plasma. Concentrations measured in each tissue were then normalized to the amount of drug applied to account for differences in solubilized drug in each formulation. The average concentration and the standard deviation was determined based on “n”=number of eyes assessed, rather than the number of animals. […]

[7] = tested on: endogenous leukotriene production; conditions: estimated; cited from earlier work
[8] = MC9, Table 2 column 4, no concentration in head (1 μM according to b732), read-out: % Inhibition LTB4
[9] = MC9, Table 2 column 3, no concentration in head (1 μM according to b732), read-out: % Inhibition LTC4

Row | Structure (SMILES) | inhibition at 1 µM ([1]; MC9, 1 μM, read-out: % inhibition LTB4 (1 μM)) [%] | inhibition at 1 µM [1, 8] [%] | inhibition at 1 µM ([2]; MC9, 1 μM, read-out: % inhibition LTC4 (1 μM)) [%] | inhibition at 3 µM [2] [%] | inhibition at 1 µM [2, 9] [%] | % Inhibition AA-Induced ear edema (0.3 mg/ear) (AA-induced ear edema) | % Inhibition AA-Induced ear edema (1 mg/ear) (AA-induced ear edema) | pIC50 [3] | inhibition at 3 µM [4] [%] | Concentration of compound in formulation [5] [µg/mL] | Concentration of compound in retina 0.5 hr after administration per mg compound applied (Avg ± SD) n = 2 [6] | Inhibition of endogenous leukotriene production [7]
1 | CCC(O)(CCc1ccc(Oc2nc3ccccc3s2)c(OC)c1)C(F)(F)F (centres unmarked) [Compound 103, 1-[4-(1,3-benzothiazol-2-yloxy)-3-methoxyphenyl]-3-(trifluoromethyl)pentan-3-ol] | 50 to 70 | 50 to 70 | 50 to 70 | > 90 | 50 to 70 | 30-50% | 70-90% | 5.00 to 6.00 | – | – | – | –
2 | CCC(O)(CCc1ccc(Oc2nc3ccc(F)cc3s2)c(OC)c1)C(F)(F)F (centres unmarked) [Compound 108, 1-{4-[(6-fluoro-1,3-benzothiazol-2-yl)oxy]-3-methoxyphenyl}-3-(trifluoromethyl)pentan-3-ol] | – | > 90 | – | 50 to 70 | 70 to 90 | <10% | 30-50% | 5.00 to 6.00 | – | – | – | –
3 | COc1cc(CCC(C)(O)C(F)(F)F)ccc1Oc1nc2c(SC)cccc2s1 (centres unmarked) [Compound 119, 1,1,1-trifluoro-4-(3-methoxy-4-{[4-(methylsulfanyl)-1,3-benzothiazol-2-yl]oxy}phenyl)-2-methylbutan-2-ol] | – | > 90 | – | > 90 | > 90 | 30-50% | 50-70% | 5.00 to 6.00 | – | – | – | –
4 | CCC(CCc1ccc(Oc2nc3ccccc3s2)cc1)N1CCCC1 (centres unmarked) [Compound 158, 2-{4-[3-(pyrrolidin-1-yl)pentyl]phenoxy}-1,3-benzothiazole] | – | > 90 | – | < 10 | 10 to 30 | – | 10-30% | 6.00 to 7.00 | 50 to 75 | – | – | –
5 | CCC(C)(O)CCc1ccc(Oc2nc3c(SC)cccc3s2)c(OC)c1 (centres unmarked) [Compound 191, 1-(3-methoxy-4-{[4-(methylsulfanyl)-1,3-benzothiazol-2-yl]oxy}phenyl)pentan-3-methyl-3-ol] | – | – | – | > 90 | – | – | – | – | – | 1650 | 4872 ± 1672 ng/mL per mg compound applied | –
6 | CCC(O)CCc1ccc(Oc2nc3c(SC)cccc3s2)c(OC)c1 (centres unmarked) [Compound 193, 1-(3-methoxy-4-{[4-(methylsulfanyl)-1,3-benzothiazol-2-yl]oxy}phenyl)pentan-3-ol] | – | > 90 | – | 70 to 90 | > 90 | – | – | – | – | 2530 | 15690 ± 9863 ng/mL per mg compound applied | –
7 | CCC(O)(CCc1ccc(Oc2nc3c(SC)cccc3s2)cc1)C(F)(F)F (centres unmarked) [Compound 195, 1-(4-{[4-(methylsulfanyl)-1,3-benzothiazol-2-yl]oxy}phenyl)-3-(trifluoromethyl)pentan-3-ol] | – | – | – | > 90 | – | – | – | – | – | 3640 | 3343 ± 2.4 ng/mL per mg compound applied | –
8 | CC(c1cc2ccccc2s1)N(O)C(N)=O (centres unmarked) [Zileuton] | – | – | – | – | – | – | – | – | – | – | – | 26-86%

Reference: patent US12686668B2, “Leukotriene synthesis inhibitors” (Naegis Pharmaceuticals Inc., priority 2019, dated 2026)
